Values quoted from earlier work as cited in publication PMC8075256, “Transport of Alzheimer’s associated amyloid-β catalyzed by P-glycoprotein” (PLOS ONE, 2021).

Test system: P-gp and BCRP
Details: ref 65 Kannan et al.
Text: To further test if P-gp can transport Aβ42, we performed fluorescence accumulation assays in a human cellular system. […] Previous work by our group has shown that the chemotherapy-sensitive, non-P-gp-overexpressing DU145 cells do express detecta ...

In the case of `COc1cc2c(cc1OC)CN(CCc1ccc(NC(=O)c3cc(OC)c(OC)cc3NC(=O)c3cnc4ccccc4c3)cc1)CC2` [Tariquidar], the “concentrations at which TQR acts as an inhibitor of both P-gp and BCRP” value is given as “greater than 100 nM”.
